# What was measured:
# Experiment in all cases: relative viability (nuclei count vs DMSO), 5 days (fraction); higher = more cells survive
# [1] = compound: Cc1ccc2nc(NCCN)c3ncc(C)n3c2c1 + CC(=O)Nc1cccc(-n2c(=O)n(C3CC3)c(=O)c3c(Nc4ccc(I)cc4F)n(C)c(=O)c(C)c32)c1 [Trametinib] (partner 0.02 µM)
# Summary of the method: (§1)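 Medians of duplicate plates are given as relative viability. That measure is the nuclei count in treated wells divided by the count in vehicle wells. Counts were taken on 4× images of lung cancer cell lines in 1536-well plates, 5 days after pin-tool dosing the day after seeding with one drug alone or a fixed anchor-drug dose plus five library-drug doses (not always all listed) in √10 steps.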
# [2] = compound: Cc1ccc2nc(NCCN)c3ncc(C)n3c2c1 + N=C(N)NC(=N)NCCc1ccccc1 [Phenformin] (partner 250 µM)
# Summary of the method: as §1
# [3] = compound: Cc1ccc2nc(NCCN)c3ncc(C)n3c2c1 + Nc1ncn([C@H]2C[C@H](O)[C@@H](CO)O2)c(=O)n1 [Decitabine] (partner 2 µM)
# Summary of the method: as §1
# Salubrinal + Navitoclax = compound: O=C(/C=C/c1ccccc1)NC(NC(=S)Nc1cccc2cccnc12)C(Cl)(Cl)Cl [Salubrinal] + CC1(C)CCC(c2ccc(Cl)cc2)=C(CN2CCN(c3ccc(C(=O)NS(=O)(=O)c4ccc(N[C@H](CCN5CCOCC5)CSc5ccccc5)c(S(=O)(=O)C(F)(F)F)c4)cc3)CC2)C1 [Navitoclax] (partner 0.5 µM)
# Summary of the method: as §1
Cell Line,relative viability ([1]; first compound 0.04 µM),relative viability ([1]; first compound 0.1265 µM),relative viability ([1]; first compound 0.4 µM),relative viability ([1]; first compound 1.265 µM),relative viability ([1]; first compound 4 µM),relative viability ([2]; first compound 0.04 µM),relative viability ([2]; first compound 0.1265 µM),relative viability ([2]; first compound 0.4 µM),relative viability ([2]; first compound 1.265 µM),relative viability ([2]; first compound 4 µM),relative viability ([3]; first compound 0.04 µM),relative viability ([3]; first compound 0.1265 µM),relative viability ([3]; first compound 0.4 µM),relative viability ([3]; first compound 1.265 µM),relative viability ([3]; first compound 4 µM),relative viability (Salubrinal + Navitoclax; first compound 0.08 µM),relative viability (Salubrinal + Navitoclax; first compound 0.253 µM),relative viability (Salubrinal + Navitoclax; first compound 0.8 µM),relative viability (Salubrinal + Navitoclax; first compound 2.53 µM),relative viability (Salubrinal + Navitoclax; first compound 8 µM)
HCC-78,0.703,0.672,0.699,0.527,0.536,0.81,0.694,0.71,0.697,0.601,0.745,0.711,0.735,0.664,0.617,0.851,0.835,0.982,0.764,0.769
LOU-NH91,0.819,0.792,0.794,0.787,0.775,0.729,0.693,0.756,0.654,0.664,0.814,0.807,0.808,0.827,0.797,0.81,0.73,0.737,0.699,0.617
NCI-H3122,0.21,0.26,0.248,0.259,0.238,0.411,0.379,0.399,0.36,0.288,0.4,0.449,0.377,0.541,0.421,1.09,1.01,1.06,1.06,1.09
HCC-827,0.557,0.51,0.539,0.626,0.555,0.409,0.402,0.401,0.39,0.384,0.335,0.325,0.333,0.391,0.284,1.03,0.958,1.1,1.05,0.979
SK-LU-1,0.427,0.509,0.478,0.546,0.462,0.649,0.568,0.614,0.553,0.43,0.672,0.656,0.744,0.665,0.69,0.917,0.745,1.02,0.859,0.864
NCI-H1975,0.329,0.376,0.369,0.329,0.321,0.415,0.394,0.432,0.414,0.355,0.384,0.394,0.405,0.455,0.403,1.27,0.796,1.21,1.15,1.1
NCI-H1651,0.842,0.666,0.844,0.865,0.829,0.351,0.273,0.315,0.358,0.352,0.628,0.664,0.69,0.637,0.518,1.1,1.01,1.21,,0.979
NCI-H441,0.487,0.47,0.342,0.346,0.512,0.791,0.85,0.922,0.923,0.769,0.235,0.245,0.191,0.26,0.235,0.437,0.711,0.642,0.678,0.913
LCLC-97TM1,0.194,0.212,0.196,0.189,0.186,0.38,0.427,0.435,0.465,0.435,0.215,0.21,0.244,0.22,0.236,0.368,0.648,0.464,,0.433
NCI-H727,0.453,,0.398,0.383,0.435,0.436,,0.527,0.555,0.64,0.976,,0.995,0.84,0.797,0.519,0.482,0.443,0.395,0.474
NCI-H1355,0.44,0.448,0.392,0.39,0.387,0.484,0.476,0.441,0.391,0.42,0.398,0.364,0.345,0.356,0.367,1.02,1.07,1.07,0.949,0.87
HOP-62,0.41,0.374,0.376,0.387,0.328,0.676,0.643,0.575,0.657,0.653,0.24,0.209,0.241,0.177,0.234,1.04,0.822,1.09,1.01,0.958
NCI-H2085,1.03,0.63,0.502,0.491,0.499,0.817,0.762,0.711,0.722,0.744,0.56,0.556,0.522,0.534,0.524,1.26,1,1.23,1.07,1.21

# — the supplement of paper PMC10307832
